According to PubChem BioAssay (NCI):
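How tested: cells in 96-well plates exposed to compound for 48 hours at five concentrations. TGI: total growth inhibition.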

Key:
Assay in all cases: inhibition of tumour cell growth, NCI panel, 48 h
A549 NSCLC = test system: A549 NSCLC
COLO 205 colon = test system: COLO 205 colon
EKVX NSCLC = test system: EKVX NSCLC
HCT-116 colon = test system: HCT-116 colon
K-562 leukemia = test system: K-562 leukemia
MOLT-4 leukemia = test system: MOLT-4 leukemia
NCI-H23 lung = test system: NCI-H23 lung
NCI-H522 lung = test system: NCI-H522 lung
PC-3 prostate = test system: PC-3 prostate
RPMI-8226 leukemia = test system: RPMI-8226 leukemia
SK-OV-3 ovarian = test system: SK-OV-3 ovarian
SNB-19 CNS = test system: SNB-19 CNS
SW-620 colon = test system: SW-620 colon
T-47D breast = test system: T-47D breast
UACC-257 melanoma = test system: UACC-257 melanoma
UACC-62 melanoma = test system: UACC-62 melanoma
786-0 renal = test system: 786-0 renal
M14 melanoma = test system: M14 melanoma
NCI-H460 lung = test system: NCI-H460 lung
NCI/ADR-RES ovarian = test system: NCI/ADR-RES ovarian

Row | SMILES | TGI (A549 NSCLC) [µM] | TGI (COLO 205 colon) [µM] | TGI (EKVX NSCLC) [µM] | TGI (HCT-116 colon) [µM] | TGI (K-562 leukemia) [µM] | TGI (MOLT-4 leukemia) [µM] | TGI (NCI-H23 lung) [µM] | TGI (NCI-H522 lung) [µM] | TGI (PC-3 prostate) [µM] | TGI (RPMI-8226 leukemia) [µM] | TGI (SK-OV-3 ovarian) [µM] | TGI (SNB-19 CNS) [µM] | TGI (SW-620 colon) [µM] | TGI (T-47D breast) [µM] | TGI (UACC-257 melanoma) [µM] | TGI (UACC-62 melanoma) [µM] | TGI (786-0 renal) [µM] | TGI (M14 melanoma) [µM] | TGI (NCI-H460 lung) [µM] | TGI (NCI/ADR-RES ovarian) [µM]
1 | COC1/C=C/C=C(/C)Cc2cc(O)c(Cl)c(c2)N(C)C(=O)CC(OC(=O)C(C)C)C2(C)OC2C(C)C2CC1(O)NC(=O)O2 (centres undefined) | > 100 | 0.0104 | > 100 | > 100 | > 100 | > 100 | < 0.01 | < 0.01 | > 100 | > 100 | > 100 | > 100 | > 100 | > 100 | > 100 | > 100 |  |  |  | 
2 | CC#C[C@]1(O)CCC2[C@@H]3CCC4=CC(=O)CCC4=C3[C@@H](c3ccc(N(C)C)cc3)C[C@@]21C (some centres undefined) | > 100 | 24.1 | 53 | 39.6 | 58.8 |  | 62.1 |  | 88.7 | 7.15 | 72.4 | 98.3 | > 100 | > 100 | 36.5 | 18.6 | 37.2 | 32.1 | 28.3 | 89.3
3 | O=C(CN1CCCC1=O)CS(=O)(=O)c1ccccc1 | > 100 | > 100 | > 100 | > 100 | > 100 | > 100 | > 100 | > 100 | > 100 | > 100 |  | > 100 | > 100 |  | > 100 | > 100 | > 100 | > 100 | > 100 | > 100
4 | COc1ccc2c(c1)CC[C@@H]1C2CC[C@]2(C)C(=O)N(CCN(C)C)C(=O)CC12 (some centres undefined) | > 100 | > 100 | > 100 | > 100 | > 100 | > 100 | > 100 | > 100 | > 100 |  | > 100 | > 100 | > 100 | > 100 | > 100 | > 100 | > 100 | > 100 | > 100 | 
5 | COC(C/C(=C/CO[Si](C(C)C)(C(C)C)C(C)C)C(=O)N(C(=O)OC(C)(C)C)c1ccccc1I)OC | > 100 | > 100 |  | > 100 | > 100 | > 100 | > 100 | 18.3 | 77.4 | > 100 | > 100 | > 100 | > 100 | > 100 | > 100 | > 100 | > 100 | > 100 | > 100 | > 100
6 | CN(C)CCNC(=O)c1cccc2ccc(-c3ccc(Br)cc3)nc12 | 4.29 | 2.54 | 9.08 | 5.13 | 9.2 | 1.48 | 13.6 | 4.21 |  | 5.93 | 10.6 | 16.7 | 5.9 |  | 10.7 | 3.6 |  |  | 2.77 | 5.89
7 | CC(C)(C)NC1=NC(C(F)(F)F)(C(F)(F)F)NC(=O)N1 | > 100 |  | > 100 | > 100 | > 100 | > 100 | > 100 |  | > 100 | > 100 | > 100 | > 100 | > 100 | > 100 | > 100 | > 100 | > 100 | > 100 | > 100 | > 100
8 | Cc1ccccc1NC(=O)Cc1csc(N/N=C2\NC(=O)/C(=C/c3cccc([N+](=O)[O-])c3)S2)n1 | 44.5 | > 100 | 32.8 | > 100 |  | > 100 | 42.7 |  | 33.5 |  | 74.6 | 34 | > 100 | 55.1 | 41.9 |  | > 100 | 31.3 | 29 | > 100
9 | CSc1cc(Cl)c(C)cc1S(=O)(=O)NC(=O)NNc1ccc(F)cc1 | > 100 | > 100 | > 100 | > 100 | > 100 | > 100 |  | > 100 | > 100 |  | > 100 | > 100 | > 100 | > 100 |  |  | > 100 | > 100 | > 100 | > 100
10 | CCOC(=O)c1c(NS(=O)(=O)c2ccc(C)cc2)sc2c1CCCC2 | > 100 | 37.9 | 98.7 | 73 | > 100 | > 100 | 54 |  | > 100 | 45.9 |  | > 100 |  | > 100 | > 100 | 56.5 | > 100 | > 100 | 78.8 | > 100
11 | O=C1c2ccccc2C(=O)N1n1c(Cc2ccc(Cl)cc2)n[nH]c1=O | > 100 | > 100 | > 100 | > 100 | > 100 | > 100 | > 100 |  | > 100 |  |  | > 100 | > 100 | > 100 | > 100 | > 100 | > 100 | > 100 | > 100 | > 100
12 | c1coc(-c2nccc3c2[nH]c2ccccc23)c1 | > 100 | 33.5 | > 100 | > 100 | > 100 | > 100 | > 100 | > 100 | > 100 |  | > 100 | > 100 | > 100 | > 100 | > 100 | > 100 | > 100 | > 100 | > 100 | > 100
13 | CC[C@@]1(O)C[C@H](OC2CC(N(C)C)C(O)C(C)O2)c2c(cc3c(c2O)C(=O)c2c(O)ccc(O)c2C3=O)[C@H]1C(=O)OC (some centres undefined) | 1.36 | 0.359 | 0.526 | 0.829 | 0.472 | 0.192 | 0.599 | 0.501 |  | 0.388 | 2.37 | 2.91 | 0.662 |  | 0.317 | 0.252 |  |  | 0.12 | 0.619
